Measured values as given in paper PMC9600963, “Cation ATPase (ATP4) Orthologue Replacement in the Malaria Parasite Plasmodium knowlesi Reveals Species-Specific Responses to ATP4-Targeting Drugs” (mBio, 2022).

Columns and labels:
Assay in all cases: growth inhibition of orthologue replacement parasite line, SYBR green I (whole-cell read-out)
Assay type in all cases: cell-based
Details in all cases: intact P. knowlesi parasites in erythrocytes, 27 h (one life cycle); not a direct enzyme assay
PkATP4 (PkATP4^OR line) = biological target: T1, PkATP4 (PkATP4^OR line) (Plasmodium knowlesi, UniProt A0A384LKC1)
T1 construct: gene PKNH_1312000; untagged; intact parasites
T1 sequence (A0A384LKC1 1-1293): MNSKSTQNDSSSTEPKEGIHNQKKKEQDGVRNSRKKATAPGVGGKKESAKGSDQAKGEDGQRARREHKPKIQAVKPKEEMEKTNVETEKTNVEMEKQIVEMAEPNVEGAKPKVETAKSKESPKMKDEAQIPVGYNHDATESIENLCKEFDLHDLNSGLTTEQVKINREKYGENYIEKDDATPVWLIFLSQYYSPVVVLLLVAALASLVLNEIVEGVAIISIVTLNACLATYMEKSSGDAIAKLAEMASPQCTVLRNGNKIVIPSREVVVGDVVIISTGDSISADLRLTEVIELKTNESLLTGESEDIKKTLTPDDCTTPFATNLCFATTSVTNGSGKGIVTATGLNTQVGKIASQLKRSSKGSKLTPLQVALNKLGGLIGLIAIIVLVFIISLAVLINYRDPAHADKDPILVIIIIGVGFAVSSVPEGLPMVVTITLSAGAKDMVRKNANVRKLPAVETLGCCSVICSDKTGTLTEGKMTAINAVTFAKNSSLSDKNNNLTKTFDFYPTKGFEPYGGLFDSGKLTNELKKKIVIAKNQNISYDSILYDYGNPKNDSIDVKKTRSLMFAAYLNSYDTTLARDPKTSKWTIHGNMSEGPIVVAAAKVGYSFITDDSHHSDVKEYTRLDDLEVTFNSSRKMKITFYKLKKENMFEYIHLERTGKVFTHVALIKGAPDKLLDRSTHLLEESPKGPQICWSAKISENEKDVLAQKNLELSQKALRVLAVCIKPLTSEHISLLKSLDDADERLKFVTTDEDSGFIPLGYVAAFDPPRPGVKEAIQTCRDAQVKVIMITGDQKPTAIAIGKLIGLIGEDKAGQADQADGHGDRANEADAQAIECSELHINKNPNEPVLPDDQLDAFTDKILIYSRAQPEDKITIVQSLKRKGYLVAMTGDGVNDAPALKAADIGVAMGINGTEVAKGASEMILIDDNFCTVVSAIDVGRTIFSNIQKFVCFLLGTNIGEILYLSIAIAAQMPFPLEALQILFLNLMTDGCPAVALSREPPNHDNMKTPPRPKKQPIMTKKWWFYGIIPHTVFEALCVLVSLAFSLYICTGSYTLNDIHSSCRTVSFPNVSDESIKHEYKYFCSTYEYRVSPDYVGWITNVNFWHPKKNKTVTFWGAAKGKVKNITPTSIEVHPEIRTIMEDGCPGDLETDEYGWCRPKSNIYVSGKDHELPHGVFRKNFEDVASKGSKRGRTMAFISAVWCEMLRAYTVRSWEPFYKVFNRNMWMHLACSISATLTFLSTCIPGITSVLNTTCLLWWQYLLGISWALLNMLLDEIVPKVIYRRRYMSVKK
Source text: growth inhibition of orthologue replacement parasite line, SYBR green I (whole-cell read-out) on PkATP4 (PkATP4^OR line)

PmATP4 (PmATP4^OR line) = biological target: T2, PmATP4 (PmATP4^OR line) (Plasmodium malariae, UniProt A0A1A8WBD6)
T2 construct: gene ATP4; full-length recodonized coding region replacing pkatp4 in P. knowlesi A1-H.1; untagged; intact parasites
T2 sequence (A0A1A8WBD6 1-1380): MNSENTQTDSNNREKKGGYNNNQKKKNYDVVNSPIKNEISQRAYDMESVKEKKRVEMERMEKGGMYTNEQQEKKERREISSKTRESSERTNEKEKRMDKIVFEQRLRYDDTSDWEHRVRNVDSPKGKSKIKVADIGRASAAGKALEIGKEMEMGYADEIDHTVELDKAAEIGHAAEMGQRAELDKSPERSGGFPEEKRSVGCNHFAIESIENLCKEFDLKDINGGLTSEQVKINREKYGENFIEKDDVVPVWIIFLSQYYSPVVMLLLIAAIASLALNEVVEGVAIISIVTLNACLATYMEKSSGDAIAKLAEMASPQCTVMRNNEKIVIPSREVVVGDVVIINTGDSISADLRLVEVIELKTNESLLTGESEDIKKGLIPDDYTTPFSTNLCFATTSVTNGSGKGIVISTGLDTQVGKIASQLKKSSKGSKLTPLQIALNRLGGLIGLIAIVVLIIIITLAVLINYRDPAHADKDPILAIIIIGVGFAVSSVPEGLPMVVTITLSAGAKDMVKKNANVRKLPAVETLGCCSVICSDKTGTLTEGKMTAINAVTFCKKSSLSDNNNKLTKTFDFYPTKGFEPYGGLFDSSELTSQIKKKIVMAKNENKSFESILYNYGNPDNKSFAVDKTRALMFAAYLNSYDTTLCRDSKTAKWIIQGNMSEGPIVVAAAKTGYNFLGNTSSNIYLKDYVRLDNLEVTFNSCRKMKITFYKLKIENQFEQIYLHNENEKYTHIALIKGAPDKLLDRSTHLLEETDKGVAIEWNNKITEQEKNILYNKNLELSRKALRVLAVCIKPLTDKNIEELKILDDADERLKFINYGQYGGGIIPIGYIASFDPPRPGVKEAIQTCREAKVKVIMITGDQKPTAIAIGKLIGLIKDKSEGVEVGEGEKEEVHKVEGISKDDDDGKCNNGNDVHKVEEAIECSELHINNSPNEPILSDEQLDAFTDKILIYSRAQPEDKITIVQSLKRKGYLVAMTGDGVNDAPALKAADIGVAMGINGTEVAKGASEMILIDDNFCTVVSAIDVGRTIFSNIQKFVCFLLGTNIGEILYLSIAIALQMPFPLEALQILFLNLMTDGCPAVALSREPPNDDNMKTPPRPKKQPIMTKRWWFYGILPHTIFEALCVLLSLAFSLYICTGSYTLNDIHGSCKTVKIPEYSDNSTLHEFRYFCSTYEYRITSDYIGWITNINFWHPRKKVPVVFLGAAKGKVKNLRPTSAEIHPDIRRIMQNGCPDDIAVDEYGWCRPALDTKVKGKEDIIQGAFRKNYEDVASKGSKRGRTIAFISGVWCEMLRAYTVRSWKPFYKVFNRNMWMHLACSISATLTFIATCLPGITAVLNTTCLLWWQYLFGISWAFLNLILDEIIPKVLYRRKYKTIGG
Source text: growth inhibition of orthologue replacement parasite line, SYBR green I (whole-cell read-out) on PmATP4 (PmATP4^OR line)

PvATP4 (PvATP4^OR line) = biological target: T3, PvATP4 (PvATP4^OR line) (Plasmodium vivax, UniProt A5K0L8)
T3 construct: gene PVX_084625; full-length recodonized coding region replacing pkatp4 in P. knowlesi A1-H.1; untagged; intact parasites
Source text: growth inhibition of orthologue replacement parasite line, SYBR green I (whole-cell read-out) on PvATP4 (PvATP4^OR line)

[1] = biological target: T4, PocATP4 (PocATP4^OR line) (Plasmodium ovale, UniProt A0A1D3TM67)
T4 construct: gene ATP4; full-length recodonized coding region replacing pkatp4 in P. knowlesi A1-H.1; untagged; intact parasites
T4 sequence (A0A1D3TM67 1-1433): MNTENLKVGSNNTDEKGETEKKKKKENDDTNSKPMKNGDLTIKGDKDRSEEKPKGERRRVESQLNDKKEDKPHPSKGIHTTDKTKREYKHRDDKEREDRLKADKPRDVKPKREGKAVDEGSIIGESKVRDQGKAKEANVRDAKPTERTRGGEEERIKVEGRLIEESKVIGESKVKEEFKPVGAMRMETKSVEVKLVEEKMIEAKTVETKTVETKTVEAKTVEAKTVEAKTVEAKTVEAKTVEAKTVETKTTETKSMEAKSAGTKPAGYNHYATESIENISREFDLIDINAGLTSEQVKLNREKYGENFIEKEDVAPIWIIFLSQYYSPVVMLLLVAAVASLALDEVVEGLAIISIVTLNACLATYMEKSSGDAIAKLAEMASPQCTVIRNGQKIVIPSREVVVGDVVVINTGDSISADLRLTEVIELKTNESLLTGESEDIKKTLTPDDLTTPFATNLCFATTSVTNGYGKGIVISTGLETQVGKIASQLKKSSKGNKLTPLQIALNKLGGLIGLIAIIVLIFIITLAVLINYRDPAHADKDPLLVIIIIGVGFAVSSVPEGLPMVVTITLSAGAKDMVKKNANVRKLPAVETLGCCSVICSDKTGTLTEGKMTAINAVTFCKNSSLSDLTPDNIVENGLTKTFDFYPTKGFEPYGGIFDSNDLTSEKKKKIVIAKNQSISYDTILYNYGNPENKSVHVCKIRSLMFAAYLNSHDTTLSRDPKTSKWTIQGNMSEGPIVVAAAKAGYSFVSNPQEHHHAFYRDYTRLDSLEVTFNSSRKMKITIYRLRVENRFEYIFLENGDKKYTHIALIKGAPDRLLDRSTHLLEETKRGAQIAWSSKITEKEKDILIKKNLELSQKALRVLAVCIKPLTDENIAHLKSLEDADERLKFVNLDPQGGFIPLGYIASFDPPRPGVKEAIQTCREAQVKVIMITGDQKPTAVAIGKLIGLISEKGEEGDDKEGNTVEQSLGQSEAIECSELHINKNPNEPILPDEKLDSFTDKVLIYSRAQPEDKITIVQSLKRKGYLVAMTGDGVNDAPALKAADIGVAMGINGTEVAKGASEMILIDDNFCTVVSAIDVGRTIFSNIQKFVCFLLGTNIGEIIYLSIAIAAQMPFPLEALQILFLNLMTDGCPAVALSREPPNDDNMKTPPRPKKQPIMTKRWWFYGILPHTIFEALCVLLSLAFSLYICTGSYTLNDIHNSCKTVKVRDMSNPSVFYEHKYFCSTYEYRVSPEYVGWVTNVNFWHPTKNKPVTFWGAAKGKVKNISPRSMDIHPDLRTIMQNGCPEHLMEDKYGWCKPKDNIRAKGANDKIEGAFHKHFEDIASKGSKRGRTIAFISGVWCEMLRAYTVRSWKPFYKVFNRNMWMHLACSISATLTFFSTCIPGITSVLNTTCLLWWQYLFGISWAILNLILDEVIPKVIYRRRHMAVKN
Source text: growth inhibition of orthologue replacement parasite line, SYBR green I (whole-cell read-out) on PocATP4 (PocATP4^OR line)

PfATP4 (PfATP4^OR line) = biological target: T5, PfATP4 (PfATP4^OR line) (Plasmodium falciparum, UniProt A0A143ZZK9)
T5 construct: gene ATP4; full-length recodonized coding region replacing pkatp4 in P. knowlesi A1-H.1; untagged; intact parasites
Source text: growth inhibition of orthologue replacement parasite line, SYBR green I (whole-cell read-out) on PfATP4 (PfATP4^OR line)

T5 sequence (A0A143ZZK9 whole entry): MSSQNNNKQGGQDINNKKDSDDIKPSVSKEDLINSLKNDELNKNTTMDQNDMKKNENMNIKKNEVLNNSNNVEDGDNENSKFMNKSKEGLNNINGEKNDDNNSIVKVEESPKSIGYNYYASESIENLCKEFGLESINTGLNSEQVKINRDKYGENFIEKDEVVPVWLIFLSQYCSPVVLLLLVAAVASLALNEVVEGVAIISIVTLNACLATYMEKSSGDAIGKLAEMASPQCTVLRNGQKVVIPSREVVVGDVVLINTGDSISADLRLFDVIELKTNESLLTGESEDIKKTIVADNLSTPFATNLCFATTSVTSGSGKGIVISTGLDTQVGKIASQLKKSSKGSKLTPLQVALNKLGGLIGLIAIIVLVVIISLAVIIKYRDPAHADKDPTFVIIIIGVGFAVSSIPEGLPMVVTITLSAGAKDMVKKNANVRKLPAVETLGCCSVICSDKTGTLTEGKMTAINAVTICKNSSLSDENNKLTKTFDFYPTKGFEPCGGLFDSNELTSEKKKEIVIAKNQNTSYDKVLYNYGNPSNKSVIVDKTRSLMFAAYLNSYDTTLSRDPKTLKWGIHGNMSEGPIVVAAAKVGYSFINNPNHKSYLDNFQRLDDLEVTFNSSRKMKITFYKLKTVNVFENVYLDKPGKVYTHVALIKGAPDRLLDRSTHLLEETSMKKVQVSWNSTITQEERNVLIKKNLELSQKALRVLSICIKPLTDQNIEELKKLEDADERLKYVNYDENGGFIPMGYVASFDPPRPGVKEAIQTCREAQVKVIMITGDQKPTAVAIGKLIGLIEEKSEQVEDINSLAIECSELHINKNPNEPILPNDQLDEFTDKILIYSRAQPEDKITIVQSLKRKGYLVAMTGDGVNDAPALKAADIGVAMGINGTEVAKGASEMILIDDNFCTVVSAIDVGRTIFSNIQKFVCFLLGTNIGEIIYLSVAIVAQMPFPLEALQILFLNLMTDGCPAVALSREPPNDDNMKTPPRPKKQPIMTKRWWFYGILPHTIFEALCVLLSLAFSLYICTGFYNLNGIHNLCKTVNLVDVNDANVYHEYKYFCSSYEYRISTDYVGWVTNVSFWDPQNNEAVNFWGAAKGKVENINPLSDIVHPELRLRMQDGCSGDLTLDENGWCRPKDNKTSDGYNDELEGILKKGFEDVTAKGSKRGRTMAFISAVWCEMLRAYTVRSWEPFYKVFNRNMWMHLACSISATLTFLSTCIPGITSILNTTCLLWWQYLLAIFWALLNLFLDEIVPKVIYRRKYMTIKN

PA21A092
EC50, nM (P value) / PA21A092 (PkATP4 (PkATP4^OR line)): 126 ± 5.5 nM
EC50, nM (P value) / PA21A092 (PmATP4 (PmATP4^OR line)): 92.8 ± 14.7 nM
EC50, nM (P value) / PA21A092 (PvATP4 (PvATP4^OR line)): 94.8 ± 14.6 nM
EC50, nM (P value) / PA21A092 [1]: 599 ± 70 nM
EC50, nM (P value) / PA21A092 (PfATP4 (PfATP4^OR line)): 17.8 ± 2.9 nM
